In publication PMC4317927 (Cancer Science, 2014):

T1: NF-κB (p50) (Homo sapiens, UniProt P19838)
T1 sequence (P19838 1-433 limits assumed): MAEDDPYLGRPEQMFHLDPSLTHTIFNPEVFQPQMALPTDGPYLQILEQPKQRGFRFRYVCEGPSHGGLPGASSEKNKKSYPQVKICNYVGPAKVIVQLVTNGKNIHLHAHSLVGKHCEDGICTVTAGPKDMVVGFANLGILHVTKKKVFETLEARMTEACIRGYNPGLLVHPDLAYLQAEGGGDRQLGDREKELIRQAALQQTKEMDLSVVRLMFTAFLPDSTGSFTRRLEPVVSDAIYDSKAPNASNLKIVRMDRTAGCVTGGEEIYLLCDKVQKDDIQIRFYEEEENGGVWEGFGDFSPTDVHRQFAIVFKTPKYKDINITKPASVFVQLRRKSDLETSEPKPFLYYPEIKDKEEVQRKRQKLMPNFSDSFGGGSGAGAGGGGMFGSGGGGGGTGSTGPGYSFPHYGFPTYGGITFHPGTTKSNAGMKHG

T2: NF-κB (p52) (Homo sapiens, UniProt Q00653)
T2 sequence (Q00653 1-454 limits assumed): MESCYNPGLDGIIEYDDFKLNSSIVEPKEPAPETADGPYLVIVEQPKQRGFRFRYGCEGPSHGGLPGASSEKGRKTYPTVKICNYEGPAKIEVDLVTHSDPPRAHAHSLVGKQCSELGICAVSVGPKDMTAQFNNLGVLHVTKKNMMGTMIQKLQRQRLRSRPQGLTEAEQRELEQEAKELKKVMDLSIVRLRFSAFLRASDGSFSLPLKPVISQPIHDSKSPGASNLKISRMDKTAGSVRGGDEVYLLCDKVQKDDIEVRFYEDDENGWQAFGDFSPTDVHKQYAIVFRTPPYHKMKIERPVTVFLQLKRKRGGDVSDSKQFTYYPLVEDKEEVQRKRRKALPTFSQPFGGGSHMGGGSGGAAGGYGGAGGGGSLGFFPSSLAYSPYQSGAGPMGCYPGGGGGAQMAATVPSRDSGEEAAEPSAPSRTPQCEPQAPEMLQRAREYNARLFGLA


Key:
NF-κB (p50) = target: T1, NF-κB (p50); experiment: DSE-FRET DNA-binding
NF-κB (p52) = target: T2, NF-κB (p52); experiment: DSE-FRET DNA-binding
GST-NF-kB p50 = GST-NF-kB p50 (human, UniProt P19838 1-433); experiment: DSE-FRET

| IC50 (NF-κB (p50)) [µM] | IC50 (NF-κB (p52)) [µM] | Molecule | apparent K (half saturation) (GST-NF-kB p50) [nM] |
| --- | --- | --- | --- |
| 12.9 | 12.8 | Cc1cc(-c2ccc(/N=N/c3ccc4c(S(=O)(=O)O)cc(S(=O)(=O)O)c(N)c4c3O)c(C)c2)ccc1/N=N/c1ccc2c(S(=O)(=O)O)cc(S(=O)(=O)O)c(N)c2c1O [EB, Evans Blue] |  |
| 8.8 | 62.5 | O=C(NC1=CC(=O)[C@H]2O[C@H]2[C@H]1O)c1ccccc1O [(−)-DHMEQ] |  |
|  |  | NF-D1 (NF-01F/NF-14D) (dsDNA) DNA 1: AGTTGAGGGGACTTTCCCAGGCGACTCACTATAGGCGGTGTCTCGCTCGC DNA 2: GGGAATGGTGTGGTGCCTATAGTGAGTCGCCTGGGAAAGTCCCCTCAACT | ~40 |
